# pKi: −log10 of the molar value.
# Biological target: Human immunodeficiency virus type 1 protease (Human immunodeficiency virus 1, UniProt Q72874)
# Experiment: Inhibition of recombinant HIV-1 protease
row,Compound,pKi
1,C[C@H](N)C(=O)N[C@@H](C)C(=O)N[C@@H](Cc1ccccc1)[C@@H](O)CCC(=O)NC(c1ccccc1)c1cc2ccccc2[nH]1 (some centres undefined),6.70
2,CC(C)CC(=O)N[C@H](C(=O)N[C@H](C(=O)N[C@@H](CC(C)C)[C@@H](O)CC(=O)N[C@@H](C)C(=O)N[C@@H](CC(C)C)[C@@H](O)CC(=O)O)C(C)C)C(C)C [PEPSTATIN],5.51
3,COC(=O)[C@@H](CC(=O)[C@@H](NC(=O)CC[C@H](O)[C@H](Cc1ccccc1)NC(=O)[C@H](C)NC[C@H](C)N)C(C)C)C(C)C,7.74
4,NC(=O)C[C@H](NC(=O)c1ccc2ccccc2n1)C(=O)NC(Cc1ccccc1)[C@@H](O)CCC(=O)NC(c1cc2ccccc2[nH]1)C1CCCCC1 (some centres undefined),6.74

# Continued, values first:
row,pKi,Compound
1,7.48,NC(=O)C[C@H](NC(=O)c1ccc2ccccc2n1)C(=O)NC(Cc1ccccc1)[C@@H](O)CCC(=O)NC(c1cccc(C(F)(F)F)c1)c1cc2ccccc2[nH]1 (some centres undefined)
2,7.41,Cc1cccc(C(NC(=O)CC[C@H](O)C(Cc2ccccc2)NC(=O)[C@H](CC(N)=O)NC(=O)c2ccc3ccccc3n2)c2cc3ccccc3[nH]2)c1 (some centres undefined)
3,6.32,NC(=O)C[C@H](NC(=O)c1ccc2ccccc2n1)C(=O)NC(Cc1ccccc1)[C@@H](O)CCC(=O)NC(c1ccccc1)c1nc2ccccc2[nH]1 (some centres undefined)
4,7.37,NC(=O)C[C@H](NC(=O)c1ccc2ccccc2n1)C(=O)NC(Cc1ccccc1)[C@@H](O)CCC(=O)NC(c1ccccc1)c1cc2ccccc2[nH]1 (some centres undefined)
5,5.89,NC(=O)C[C@H](NC(=O)c1ccc2ccccc2n1)C(=O)NC(Cc1ccccc1)[C@@H](O)C[C@@H](Cc1ccccc1)C(=O)NC(c1ccccc1)c1cc2ccccc2[nH]1 (some centres undefined)

# Source: ChEMBL document CHEMBL1127584, “Crystal-structure-based design and synthesis of novel C-terminal inhibitors of HIV protease” (J Med Chem, 1994)
